Results: patent US4547489A, “Conformationally restricted thymopentin-like compounds” (Ortho Pharmaceutical Corporation, priority 1984, dated 1985)
Where a SMILES comes first, the peptide text is derived from it. Where no end group is shown, it is not given here.

Tested on: cell membrane receptor of the intact CEM cell
Assay: Cyclic-GMP assay: induction of cyclic-GMP production in CEM cells
Type: cell-based, human
Conditions: 4-5 min incubation at 37° C., radioimmunoassay of cyclic GMP
Description: This biological activity is evidenced by an assay measuring induction of cyclic-GMP production in a human T-cell line in comparison with thymopoietin. The induction of c-GMP production by a test peptide in this assay indicates the ability of the test peptide to bind to the thymopoietin receptor site on the cell and induce thymopoietin-like biological activity.
This assay measures the ability of the test peptide to bind to the cell membrane receptor of the intact CEM cell and selectively stimulate production of cyclic-GMP, as does thymopoietin itself.
The CEM cell line was obtained from the American Type Culture Collection and was cultured in RPMI-1640 medium supplemented with 10% heat-inactivated fetal bovine serum, 10% heat-inactivated horse serum, 2mM L-glutamine, and 50 µg/ml gentamycin at 37° C. in a humid atmosphere containing 5 percent CO2, to a final density of 3-4×10^6 cells/ml. […]
The cells in TCA were then homogenized and sonicated to release cyclic nucleotide. The resulting suspension was centrifuged at 3000 g for 20 min at 4° C. and the resulting precipitate was dissolved in 0.1N NaOH and sonicated for a further 30 minutes, after which the protein content was determined by the method of Cadman, et al., Anal. Biochem., 96, 21-23 (1979). […]

Compound | thymopentin-like activity (cyclic GMP induced by test peptide)
CC(C)[C@@H]1NC(=O)[C@H](CC(=O)O)NC(=O)[C@H](CCCCN)NC(=O)[C@H](CCCNC(=N)N)NC(=O)[C@H](Cc2ccc(O)cc2)NC1=O [peptide 1, Cyclo-(Arg-Lys-Asp-Val-Tyr)] (cyclo(DVYRK)) | demonstrated thymopentin-like activity
CC(C)[C@@H]1NC(=O)[C@H](CC(=O)O)NC(=O)[C@H](CCCCN)NC(=O)[C@H](CCCNC(=N)N)NC(=O)CNC(=O)[C@H](Cc2ccc(O)cc2)NC1=O [peptide 2, Cyclo-[Arg-Lys-Asp-Val-Tyr-Gly]] (cyclo(DVYGRK)) | demonstrated thymopentin-like activity

Tested on: isolated thymopoietin cell surface receptor protein from CEM cells
Assay: not given
Conditions: 2.3×10^-10 M 125I-Tp, 4 μg receptor protein, TP 37-45 nonapeptide present, 12 h

Compound | displacement of 125I-thymopoietin (in words)
β-endorphin: comparison peptide in the receptor assay (YGGFMTSEKSQTPLVTLFKNAIIKNAYKKGE; Beta-endorphin; UniProt P01189 237-267, looked up) | no detectable displacement
C[C@H](N)C(=O)NCC(=O)N[C@H]1CSSC[C@@H](C(=O)O)NC(=O)[C@H](CO)NC(=O)[C@H]([C@@H](C)O)NC(=O)[C@H](Cc2ccccc2)NC(=O)[C@H]([C@@H](C)O)NC(=O)[C@H](CCCCN)NC(=O)[C@H](Cc2c[nH]c3ccccc23)NC(=O)[C@H](Cc2ccccc2)NC(=O)[C@H](Cc2ccccc2)NC(=O)[C@H](CC(N)=O)NC(=O)[C@H](CCCCN)NC1=O [somatostatin] | no detectable displacement
glucagon: comparison peptide in the receptor assay | no detectable displacement
ubiquitin | no detectable displacement
CRF: corticotropin-releasing factor (SEEPPISLDLTFHLLREVLEMARAEQLAQQAHSNRKLMEII; ends and bridges not checked; UniProt P06850 154-194, looked up) | no detectable displacement
growth hormone: comparison peptide in the receptor assay | no detectable displacement
ACTH: adrenocorticotropic hormone (SYSMEHFRWGKPVGKKRRPVKVYPNGAEDESAEAFPLEF; Corticotropin; UniProt P01189 138-176, looked up) | no detectable displacement
